# Measured values published in patent publication US12599575B2, “Antimicrobial adjuvant containing biphenyl derivative compound as active ingredient, and uses thereof” (KOREA RESEARCH INSTITUTE OF BIOSCIENCE AND BIOTECHNOLOGY, priority 2021, dated 2026).
# Entries after “also recorded” stand apart in the source; their conditions may differ.
# Tests used:
# [1] = system: Acinetobacter baumannii strains (R357); assay: bacterial morphological change (fluorescence microscope, scanning electron microscope); conditions: 9 hours
# Protocol: First, in a LB agar plate, a single colony was inoculated into 3 ml of a LB broth and incubated overnight at 37° C. and 220 rpm for 16 hours. Thereafter, 1% of the culture medium was diluted in a 250 ml of Erlenmeyer flask and incubated to OD=0.5, treated with PMB and PA108 at concentrations of 16 μg/ml and 5 μM, respectively, and incubated for 9 hours. The cells were centrifuged at 4° C. for 10 minutes at 8,000×g, washed three times, and resuspended in PBS. 3 ml of the cell suspension was fixed and then observed with a scanning electron microscope. A LIVE/DEAD BacLight bacterial viability kit (Cat #. L7007, Invitrogen, Waltham, Massachusetts, USA) was used to add SYTO9 (67 mM, 3 μL) which bound to DNA and RNA of living cells to emit green fluorescence and Propidium iodide (PI) (1.67 mM, 3 μL) which bound to DNA and RNA of dead cells to emit red fluorescence to add each sample at a final volume of 3 ml, and the samples were incubated in a dark room at room temperature for 15 hours and observed with a fluorescence microscope.
# [2] = system: Acinetobacter baumannii strains; assay: cytoplasmic membrane potential (DiSC3(5) fluorescence); assay type: cell-based; conditions: PMB and PA108 in combination
# Protocol: The cell membrane potential was resuspended in 5 mM HEPES (pH 7.0, +5 mM of glucose), DiSC3(5) (3,3′-Dipropylthiadicarbocyanine Iodide) (50 μM, Cat. D306, Invitrogen, Carlsbad, California) which is a pigment sensitive to potential was added, incubation was performed for 30 minutes, and then fluorescence was measured by a multifunctional microplate reader to measure membrane potential.
# K. pneumoniae SCH740 = assay: checkerboard assay, MIC and FICI; conditions: for MIC Alone: 18 hours
# Protocol: (§1) It was determined that when the FICI value was 0.5 or less, the effect was synergistic, when the value was 0.5 to 4.0, the effect was indifferent, and when the value was 4 or more, the effect was antagonistic.
# (§2) First, in each LB agar plate in which bacteria (Klebsiella pneumonia SCH530, SCH740, SCH777, Pseudomonas aeruginosa SMC-U9, SMC-U10, SMC-U11) were grown, 3 to 4 colonies were inoculated into 4 to 5 ml of a LB broth and incubated overnight at 220 rpm at 37° C. for 16 hours. The next day, 5 ml of a culture medium diluted to 1/10000 was incubated to OD=0.08-0.1 in a 15 ml round culture tube at 220 rpm at a temperature of 37° C., and was diluted to 1/20 and dispensed at 196 ul in a 96-well plate. PA108 and PMB were dispensed at concentrations of 0 to 80 μM and 0 to 128 μg/Ml, respectively at 2 ul each and mixed in each well, and incubated at 37° C. for 18 hours to measure the OD value using a multifunctional microplate reader.
# [3] = system: Acinetobacter baumannii strains; assay: membrane permeability (PI fluorescence); assay type: cell-based; conditions: PMB 16 μg/ml + PA108 5 μM; 30 minutes
# Protocol: Specifically, for sample preparation, a colony culture grown for 16 hours was washed and resuspended in 0.01 M PBS at pH 7.4. Absorbance at 600 nm in a bacteria suspension was standardized to 0.5 in the same buffer solution, and a pigment PI9 (cat. P1304MP, Thermo Fisher Scientific, Waltham, Massachusetts, USA) was added at a final concentration of 1.67 μM. After incubation at 37° C. for 30 minutes, 198 μl of fluorescently labeled bacteria cells were added to a 96-well plate, and 16 μg/ml of PMB and 2 μl of 5 μM PA108 were added. After incubation for 30 minutes again, fluorescence was measured in a fluorescence measurement wavelength range of excitation of 535 nm and emission of 615 nm by a multifunctional microplate reader to measure membrane permeability.
# R357 strains [4] = assay: bacterial viability test (colony forming unit)
# Protocol: First, in a LB agar plate, a single colony was inoculated into a 3 ml of a LB broth and incubated overnight under the conditions of 37° C. and 220 rpm for 16 hours. Thereafter, 1% of the culture medium was diluted in a 250 ml Erlenmeyer flask and then incubated to OD=0.5.
# K. pneumoniae SCH530 = assay: checkerboard assay, MIC and FICI; conditions: for MIC Alone: 18 hours
# Protocol: as §1, §2
# K. pneumoniae SCH777 = assay: checkerboard assay, MIC and FICI; conditions: for MIC Alone: 18 hours
# Protocol: as §1, §2
# P. aeruginosa SMC-U11 = assay: checkerboard assay, MIC and FICI; conditions: for MIC Alone: 18 hours
# Protocol: as §1, §2
# P. aeruginosa SMC-U9 = assay: checkerboard assay, MIC and FICI; conditions: for MIC Alone: 18 hours
# Protocol: as §1, §2
# R357 strains [5] = assay: mouse sepsis model caused by R357 infection, survival rate; assay type: in vivo; conditions: PMB 100 μg/kg + PA108 60 μg/kg intraperitoneally
# Protocol: Specifically, 5×10^7 of R357 strains were intraperitoneally injected into 6 week old C57BL/6 mouses to prepare a sepsis mouse model caused by R357 infection, and PMB at a dose of 100 μg/kg and PA108 at a dose of 60 μg/kg were intraperitoneally injected alone or in combination to measure the survival rate of the mouse.
# [6] = system: A. baumannii colistin R357; assay: checkerboard assay, MIC and FICI; conditions: for MIC Alone: 18 hours
# Protocol: First, in a LB agar plate, 3-4 colonies were inoculated into a 4-5 ml of a LB broth and incubated overnight at 37° C. and 220 rpm for 16 hours. Thereafter, 5 ml of a 1/10000 dilution of the culture medium was made and incubated to OD=0.08-0.1 at 37° C. and 220 rpm in a 15 ml round culture tube.
# as §1
# [7] = system: human body-derived renal cells ACHN; assay: nephrotoxicity, renal cell viability (cell titer glo); assay type: cell-based
# Protocol: First, ACHN renal cells were incubated with 2×10^4 cells/well for 24 hours, and the medium was changed to a medium in which PMB or PA108 was mixed in all wells. After 0, 24, 48, 72, and 96 hours of the treatment with PMB or PA108, cell viability was measured as ratios of the amounts of ATP at each time to 0 hour through cell titer glo to evaluate cytotoxicity.
# P. aeruginosa SMC-U10 = assay: checkerboard assay, MIC and FICI; conditions: for MIC Alone: 18 hours
# Protocol: as §1, §2
# [8] = system: Acinetobacter baumannii strains; assay: transcriptome analysis (RNA sequencing, DEG, gene ontology); conditions: 1 hour
# Protocol: First, in a LB agar plate, a single colony was inoculated into a 3 ml of a LB broth and incubated overnight under the conditions of 37° C. and 220 rpm for 16 hours. Thereafter, 1% of the culture medium was diluted in a 250 mL Erlenmeyer flask and then incubated to OD=0.5. The culture medium was dispensed at 5 ml each into three 15 ml round culture tubes, treated with PMB at a concentration of 16 μg/ml, PA108 at a concentration of 5 μm, and PMB at a concentration of 16 μg/ml and PA108 at a concentration of 5 μm, respectively, and incubated at 37° C. and 220 rpm for 1 hour. Thereafter, bacteria were washed three times with PBS, centrifuged at 4° C. and 8,000×g for 10 minutes, and stored at −80° C.
# The library for performing RNA sequencing was prepared by extracting total RNA with a TruSeq Stranded Total RNA sample preparation kit including Ribo-Zero H/M/R, and synthesizing 150 bp-sized cDNA. The quality of the synthesized cDNA library was evaluated by Agilent 2100 BioAnalyzer (Agilent, CA, USA), and after amplifying the cluster of a denatured template, paired-end sequencing which sequences both ends of a DNA fragment using Illumina Novaseq 6000 (Illumina, CA, USA) was performed. For transcriptomic data analysis, the read value was filtered, and the filtered read value was mapped to a reference genome using an aligner STAR v.2.4.0b. Thereafter, in order to measure a gene expression amount, gene expression was quantified using a KAPA library quantification kit (Kapa Biosystems, MA, USA) according to the library quantification protocol of the manufacturer.
# In order to identify a differential expression gene (DEG), a gene expression level was measured with Cufflinks v2.1.1 using gene annotation database, and gene expression level count data was produced using HTSeq-count v0.6.1p1. Form the produced data, a TCC R package was used to identify a gene having a q value of less than 0.05 as a differential expression gene.
# For the genes identified as the differential expression gene (DEG), gene ontology (GO) analysis in which genes were classified according to three categories of biological process, molecular function, and cellular component, and information about the function of genes is provided was performed.
# [9] = in combination with polymyxin B
# [10] = A. baumannii colistin R357, PA108 + polymyxin B
# [11] = PMB 16 μg/ml + PA108 5 μM, gene ontology analysis
compound,measurement,setting,value
Cc1cc([N+](=O)[O-])cc(-c2ccc(Cl)cc2)c1O [PA108],"cell death by LIVE/DEAD fluorescence, PA108 single treatment",[1]; PA108 5 μM,the cells did not die
same,"cell morphology by scanning electron microscope, PA108 single treatment",[1]; PA108 5 μM,intact form in which the surface of cells was not damaged
same,"cell death by LIVE/DEAD fluorescence, simultaneous treatment",[1]; PMB 16 μg/ml + PA108 5 μM,cell death was derived
same,"cell morphology by scanning electron microscope, simultaneous treatment",[1]; PMB 16 μg/ml + PA108 5 μM,cells shrunk and an intracellular substance was leaked
same,bacterial cytoplasmic membrane potential,[2],changed the bacterial cytoplasmic membrane potential
same,FIC,K. pneumoniae SCH740,0.03125
same,MIC Alone,K. pneumoniae SCH740,160 µM
same,Interpretation,K. pneumoniae SCH740; PA108 + polymyxin B,Synergy
same,MIC Combi,K. pneumoniae SCH740; [9],5 µM
same,overall membrane permeability,[3],did not affect the overall membrane permeability
same,"effect of killing (CFU), PA108 single treatment",R357 strains [4]; PA108 5 μM,did not show the effect of killing
same,"cell death (CFU), simultaneous treatment",R357 strains [4]; PMB 16 μg/mL + PA108 5 μM,cell death was derived
same,bacterial killing effect,"R357 strains [4]; PMB 16 μg/mL + PA108 5 μM, final",100%
same,FIC,K. pneumoniae SCH530,0.03125
same,MIC Alone,K. pneumoniae SCH530,160 µM
same,Interpretation,K. pneumoniae SCH530; PA108 + polymyxin B,Synergy
same,MIC Combi,K. pneumoniae SCH530; [9],5 µM
same,FIC,K. pneumoniae SCH777,0.03125
same,MIC Alone,K. pneumoniae SCH777,160 µM
same,Interpretation,K. pneumoniae SCH777; PA108 + polymyxin B,Synergy
same,MIC Combi,K. pneumoniae SCH777; [9],5 µM
same,FIC,P. aeruginosa SMC-U11,0.0625
same,MIC Alone,P. aeruginosa SMC-U11,160 µM
same,Interpretation,P. aeruginosa SMC-U11; PA108 + polymyxin B,Synergy
same,MIC Combi,P. aeruginosa SMC-U11; [9],10 µM
same,FIC,P. aeruginosa SMC-U9,0.0625
same,MIC Alone,P. aeruginosa SMC-U9,160 µM
same,Interpretation,P. aeruginosa SMC-U9; PA108 + polymyxin B,Synergy
same,MIC Combi,P. aeruginosa SMC-U9; [9],10 µM
same,"survival time, simultaneous treatment","R357 strains [5]; C57BL/6 mouse, R357 i.p.",≥ 168 h
same,"R357 strains in organs at autopsy, simultaneous treatment",R357 strains [5],R357 strains were not detected in organs
same,"pathological symptoms, simultaneous treatment",R357 strains [5]; until 168 hours,without showing any pathological symptoms
same,FIC,[6]; A. baumannii colistin R357,0.03125
same,MIC Alone,[6]; A. baumannii colistin R357,160 µM
same,FICI,[6]; [10],0.06225
same,Interpretation,[6]; [10],synergistic effect; also recorded: Synergy
same,MIC Combi,"[6]; A. baumannii colistin R357, in combination with PB",5 µM
same,nephrotoxicity at working concentration,[7]; 5 μM,nephrotoxicity was not shown at all
same,renal cell viability,[7]; concentration higher than 5 μM,≥ 80%
same,FIC,P. aeruginosa SMC-U10,0.0625
same,MIC Alone,P. aeruginosa SMC-U10,160 µM
same,Interpretation,P. aeruginosa SMC-U10; PA108 + polymyxin B,Synergy
same,MIC Combi,P. aeruginosa SMC-U10; [9],10 µM
same,"gene change compared with control group, PA108 single treatment",[8]; PA108 5 μM,significant gene change was observed
same,"gene change compared with control group, simultaneous treatment",[8]; PMB 16 μg/ml + PA108 5 μM,significant gene change was observed
same,"expression of genes involved in transport of substances through a cell membrane, ATPase-coupled sulfate transmembrane transporter activity",[8]; [11],significantly increased
same,"expression of genes involved in zinc ion binding, identical protein binding, ferric ion binding and peroxidase activity",[8]; [11],significantly decreased
"polymyxin B [PMB, reference compound]","cell death by LIVE/DEAD fluorescence, PMB single treatment",[1]; PMB 16 μg/ml,the cells did not die
same,"cell morphology by scanning electron microscope, PMB single treatment",[1]; PMB 16 μg/ml,intact form in which the surface of cells was not damaged
same,FIC,K. pneumoniae SCH740,0.00781
same,MIC Alone,K. pneumoniae SCH740,128 µg/mL
same,MIC Combi,K. pneumoniae SCH740; in combination with PA108,1 µg/mL
same,"effect of killing (CFU), PMB single treatment",R357 strains [4]; PMB 16 μg/mL,did not show the effect of killing
same,FIC,K. pneumoniae SCH530,0.0623
same,MIC Alone,K. pneumoniae SCH530,8 µg/mL
same,MIC Combi,K. pneumoniae SCH530; in combination with PA108,0.5 µg/mL
same,FIC,K. pneumoniae SCH777,0.00391
same,MIC Alone,K. pneumoniae SCH777,128 µg/mL
same,MIC Combi,K. pneumoniae SCH777; in combination with PA108,0.5 µg/mL
same,FIC,P. aeruginosa SMC-U11,0.0625
same,MIC Alone,P. aeruginosa SMC-U11,32 µg/mL
same,MIC Combi,P. aeruginosa SMC-U11; in combination with PA108,2 µg/mL
same,FIC,P. aeruginosa SMC-U9,0.25
same,MIC Alone,P. aeruginosa SMC-U9,16 µg/mL
same,MIC Combi,P. aeruginosa SMC-U9; in combination with PA108,4 µg/mL
same,FIC,[6]; A. baumannii colistin R357,0.031
same,MIC Alone,[6]; A. baumannii colistin R357,54 µg/mL
same,MIC Combi,"[6]; A. baumannii colistin R357, in combination with PA108",2 µg/mL
same,minimal inhibitory concentration (MIC),"[6]; R357 strains, polymyxin alone",64 µg/mL
same,concentration from which viability of renal cells decreased,[7]; up to 96 hours,≥ 50 µg/mL
same,FIC,P. aeruginosa SMC-U10,0.125
same,MIC Alone,P. aeruginosa SMC-U10,16 µg/mL
same,MIC Combi,P. aeruginosa SMC-U10; in combination with PA108,2 µg/mL
same,"gene change compared with control group, PMB single treatment",[8]; PMB 16 μg/ml,significant gene change was observed
